Assays:
[1] = Human plasma level and half-life; format: in vivo
[2] = system: certain cytochrome P450 enzymes; assay: Cytochrome P450 inhibition in vitro; format: in vitro ADME, human
Description: (§1) In order to evaluate the effect of the compounds of formula I on cytochromes P450 (CYPs), e.g. enzyme inhibition is routinely assessed by performing in vitro inhibition studies using cDNA-expressed enzymes or human liver microsomes (Parkinson, A., Toxicol. Pathol. 24, 45-57 [1996]). Specific drug marker substrate assays according to Tucker et al., Clin. Pharmacol. Ther. 70, 103-114 (2001) can be used to determine the 50% inhibition concentration (IC50) of a compound of formula I for the principal drug-metabolizing P450 enzymes such as e.g. CYP1A2, CYP2A6, CYP2B6, CYP2C8, CYP2C9, CYP2C19, CYP2D6, CYP2E1, CYP3A4/5 and CP4A9/11.
(§2) Inhibition constants Ki or IC50 values derived by these in vitro assays provide a measure for the inhibition capacity of the tested drug compound according to the ratio of drug concentration in plasma to the respective inhibition constant Ki, where a ratio of >1.0 results in a high risk, 1.0-0.1 in a medium risk, and <0.1 in a low risk of metabolic drug interaction.

CYP3A4/5 = assay: Risk of metabolic drug interaction from in vitro P450 inhibition, CYP3A4/5; format: in vitro ADME, human; conditions: ratio of plasma concentration to Ki
Description: as §1, §2

CYP2D6 = CYP2D6 (Homo sapiens, UniProt P10635); assay: Risk of metabolic drug interaction from in vitro P450 inhibition, CYP2D6; format: in vitro ADME; conditions: ratio of plasma concentration to Ki
Description: as §1, §2

CYP2D6, sequence (P10635 whole entry): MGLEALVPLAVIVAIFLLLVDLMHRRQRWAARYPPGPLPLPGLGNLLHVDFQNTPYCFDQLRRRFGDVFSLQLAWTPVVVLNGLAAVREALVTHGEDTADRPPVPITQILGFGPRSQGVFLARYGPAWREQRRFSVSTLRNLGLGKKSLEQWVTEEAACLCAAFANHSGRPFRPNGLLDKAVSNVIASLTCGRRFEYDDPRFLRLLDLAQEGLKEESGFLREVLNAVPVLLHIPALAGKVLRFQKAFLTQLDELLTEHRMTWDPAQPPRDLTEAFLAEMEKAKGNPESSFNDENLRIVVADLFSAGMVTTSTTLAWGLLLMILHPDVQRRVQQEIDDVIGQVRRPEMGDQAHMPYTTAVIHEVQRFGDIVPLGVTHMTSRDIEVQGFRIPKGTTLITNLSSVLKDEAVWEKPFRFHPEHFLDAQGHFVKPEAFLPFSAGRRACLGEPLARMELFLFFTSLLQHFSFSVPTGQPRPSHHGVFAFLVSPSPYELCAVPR

melting point [°C]	half-life compared with STI571 [1]	inhibition of certain cytochrome P450 enzymes compared with STI571 [2]	risk of drug-drug interactions compared with STI571 (CYP3A4/5)	risk of drug-drug interactions compared with STI571 (CYP2D6)	Structure (SMILES)
209.5 to 210.5	–	–	–	–	CCN1CCN(Cc2ccc(C(=O)Nc3ccc(C)c(Nc4nccc(-c5cccnc5)n4)c3)cc2)CC1 [Example 1, 4-(4-ethyl-piperazin-1-ylmethyl)-N-[4-methyl-3-(4-pyridin-3-yl-pyrimidin-2-ylamino)-phenyl]-benzamide]
–	somewhat longer than that of STI571	less inhibition	much lower risk	much lower risk	Cc1ccc(NC(=O)c2ccc(CN3CCNCC3)cc2)cc1Nc1nccc(-c2cccnc2)n1 [Example 9, N-[4-methyl-3-(4-pyridin-3-yl-pyrimidin-2-ylamino)-phenyl]-4-piperazin-1-ylmethyl-benzamide]
242 to 245	–	–	–	–	CS(=O)(=O)O.Cc1ccc(NC(=O)c2ccc(CN3CCNCC3)cc2)cc1Nc1nccc(-c2cccnc2)n1 [Example 10, N-[4-methyl-3-(4-pyridin-3-yl-pyrimidin-2-ylamino)-phenyl]-4-piperazin-1-ylmethyl-benzamide methanesulfonate]

From patent publication US7329661B2, “N-phenyl-3-pyrimidine-amine derivatives” (Novartis AG, priority 2000, dated 2008)
